Experimental data: US9469616B2, “Cyclic compounds and methods of making and using the same” (Cellceutix Corporation, priority 2011, dated 2016)
In brackets after ≈: the same amount, converted by molar mass. Several values for one entry are separate records, joined by “and”; a condition that tells them apart may be missing. Identical values can stand only once.

Tests used:
Staphylococcus aureus = assay: Antimicrobial activity (MIC) of aryl compounds (Table 2); assay type: cell-based
Source text: (§1) A new series of aryl compounds was designed to evaluate the effect of charge and aromatic group hydrophobicity on the biological activity while still maintaining an amphiphilic topology. Four and six cationic charges were investigated, and three different central rings were used to tune the overall hydrophobicity: benzene, naphthalene, and phenylbenzene. The hydrophobicities of the aryl compounds were quantified using reversed-phase HPLC retention times (Rt). The antimicrobial activities (expressed as minimum inhibitory concentration (MIC)) of these compounds were tested against four pathogens, including both Gram-negative and Gram-positive bacteria, and their hemolysis (evaluated in terms of HC50, the lowest concentration that causes 50% hemolysis of red blood cells (RBCs)) was tested against human RBCs.

Escherichia coli = assay: as above; assay type: cell-based
Source text: as §1

human RBCs = assay type: cell-based; conditions: 1 h, pH 7.4
Source text: as §1
Cytotoxicity of the compounds is also evaluated in a hemolysis assay using human erythrocytes. Pooled whole human blood is centrifuged to separate the red blood cells (RBC). The isolated RBCs are rinsed and diluted in Tris-buffered saline (TBS buffer, pH 7.4) to obtain a 0.22% RBC stock suspension. 5 μL of a Compound stock solution is added to 45 μL of RBC suspension and incubated with shaking for 1 hour at 37° C. At the conclusion of the incubation time, samples are centrifuged and 30 μL of the supernatant is added to 100 μL of water. OD414 measurements are read for hemoglobin concentration. The bee venom peptide melittin is used as a positive control. EC50 values are determined as described above.
Cytotoxicity is also evaluated in a hemolysis assay using isolated human erythrocytes. Pooled whole human blood is centrifuged to separate the red blood cells (RBC). The isolated RBCs are rinsed and diluted in Tris-buffered saline (TBS buffer, pH 7.4) to obtain a 0.22% RBC stock suspension. […] OD405 measurements are read for hemoglobin concentration. […] EC50 values are determined using a four parameter logistic equation: Y=Bottom+(Top−Bottom)/(1+10^((Log EC50−X)*HillSlope)).

S. aureus (27660) = assay: MIC assay (Table 1); assay type: cell-based; conditions: Staphylococcus aureus, isolate 27660
K. pneumoniae (13883) = assay: MIC assay (Table 1); assay type: cell-based; conditions: Klebsiella pneumoniae, isolate 13883, read-out: MIC50 K. Pnuemnoiae
Experimental: (§2) The compounds are screened for antimicrobial activity against a number of clinically relevant pathogens. Minimum Inhibitory Concentrations (MIC) of each of the compounds are determined using standard procedures for clinical ocular isolates of Ciprofloxacin Susceptible (CS) S. aureus (CSSA), Ciprofloxacin Resistant (CR) S. aureus (CRSA), CS S. epidermidis (CSSE), CR S. epidermidis (CRSE), St. pneumoniae (SP), St. viridans group (SV), Moraxella Species (MS) (including Moraxella catarrhalis), H. influenzae (HI), P. aeruginosa (PA), Serratia marcescens (SM), S. aureus fluoroquinolone-susceptible, S. aureus fluoroquinolone-resistant, S. epidermidis (Coagulase-negative Staphylococcus) fluoroquinolone-susceptible, S. epidermidis (Coagulase-negative Staphylococcus) fluoroquinolone-resistant, and Serratia marcescens.
(§3) On the day of testing, a 640 μg/m (1280 μg/m for Serratia marcescens and Pseudomonas aeruginosa) concentration is prepared from a 1% stock solution in 0.01% acetic acid, 0.2% BSA in polypropylene tubes.
(§4) Ten μl of diluted 10× test agents is added to each well of one row of the 96 well polypropylene plates from column 2 to column 12 (column 1 is a control for bacteria alone, with no peptide). […] The same peptide is in each of the 8 rows. One plate contains dilutions of one test agent and 8 bacterial isolates.
(§5) Ninety μl of the bacterial suspensions is dispensed in each well from column 1 to column 12. Each bacterial isolate is placed in one row of a 96 well polypropylene plate containing the test agents. The plates are placed on shaker at 15 minutes at room temperature, and then incubated at 37° C. overnight. MICs are determined visually as the lowest concentration of drug that inhibits visible bacterial growth.
(§6) Data is expressed as MIC50 in μg/ml. The bacterial isolates were as follows: E. coli (25922); S. aureus (27660); E. faecalis (29212); P. aeruginosa (10145); and K. pneumoniae (13883).

E. faecalis (29212) = assay: MIC assay (Table 1); assay type: cell-based; conditions: Enterococcus faecalis, isolate 29212
Experimental: as §2, §3, §4, §5, §6

[1] = tested on: primary murine bone marrow-derived macrophages (BMDMs); assay: Cytokine and chemokine production in BMDM cells; assay type: cell-based, mouse
Source text: The specific self-agonistic effect of Compound 116 along with its elevated agonistic effect with LPS stimulation in RAW 264.7 cells prompted evaluation of Compound 116 activity in primary murine bone marrow-derived macrophages (BMDMs). […] This observation is very similar to the immunomodulatory effect of Compound 116 in RAW 264.7 cells.
It was previously reported that the protective activity of a synthetic cationic peptide against bacterial infection was associated with the induction of chemokines such as CXCL1 from macrophages and/or monocytes. Thus, the ability of this nontoxic, nonpeptidic, antimicrobial compound to modulate both cytokine and chemokine production is encouraging for the design of synthetic molecules with multiple biological functions.

RAW 264.7 cells = assay: Cytokine production in RAW 264.7 cells (ELISA); assay type: cell-based, murine
E. coli (25922) = assay: MIC assay (Table 1); assay type: cell-based; conditions: Escherichia coli, isolate 25922

NCCCOc1cc(-c2ccc3ccc(-c4cc(OCCCN)c(OCCCN)c(OCCCN)c4)cc3c2)cc(OCCCN)c1OCCCN [Compound 116]
Selectivity (HC50/MIC) S. aureus (Staphylococcus aureus; HC50/MIC): 200 and 209.6 | selectivity, times higher than the selectivity of MSI-78 (Staphylococcus aureus; S. aureus and E. coli, relative to MSI-78): ~20 times | MIC (Staphylococcus aureus; Staphylococcus aureus, Table 2, read-out: MIC S. aureus): 3.13 mg/L (≈ 4.35 µM) | MIC S. aureus (Staphylococcus aureus; Table 2): ≈ 3 μg/ml | MIC (Escherichia coli; Escherichia coli, Table 2): 3.13 mg/L (≈ 4.35 µM) | Selectivity (HC50/MIC) E. coli (Escherichia coli; HC50/MIC): 200 and 209.6 | MIC E. coli (Escherichia coli; Table 2): ≈ 3 μg/ml | HC50 (human RBCs): 656 µg/mL | MIC50 (S. aureus (27660)): 3.13 mg/L (≈ 4.35 µM) | MIC50 (K. pneumoniae (13883)): 25 mg/L (≈ 34.8 µM) | MIC50 (E. faecalis (29212)): 25 mg/L (≈ 34.8 µM) | LPS-induced TNF production ([1]; 5.0 μg/mL preincubation 1 hour, LPS 100 ng/mL 15 hours, FIG. 3A): significantly increased | LPS-induced IL-10 production ([1]; 5.0 μg/mL preincubation 1 hour, LPS 100 ng/mL 15 hours, FIG. 3B): inhibited | TNF production ([1]; 5.0 μg/mL, in the absence of LPS, FIG. 3A): 30 pg/mL | murine KC (chemokine CXCL1) levels ([1]; 5.0 μg/mL, relative to the DMSO control, FIG. 3C): significantly higher levels | LPS-induced TNF production (RAW 264.7 cells; 5.0 μg/mL preincubation 1 hour, LPS 100 ng/mL 18 hours, FIG. 1B): increased | LPS-induced IL-6 production (RAW 264.7 cells; 5.0 μg/mL preincubation 1 hour, LPS 100 ng/mL 18 hours, FIG. 1C): increased | LPS-induced IL-10 production (RAW 264.7 cells; 5.0 μg/mL preincubation 1 hour, LPS 100 ng/mL 18 hours, FIG. 1D): inhibited the production of the anti-inflammatory cytokine IL 10 to background levels | TNF production (RAW 264.7 cells; 5.0 μg/mL, without LPS, FIG. 1A): induced TNF production | LPS-induced TNF production with externally added rIL-10 (RAW 264.7 cells; preincubated with mouse rIL-10 50 ng/mL, 5.0 μg/mL compound, LPS 100 ng/mL, FIG. 2): abrogation of Compound 116's capacity to enhance TNF production | TNF level with externally added rIL-10 (RAW 264.7 cells; preincubated with mouse rIL-10 50 ng/mL, 5.0 μg/mL compound, without LPS, FIG. 2): only a slight decrease in the overall TNF level | MIC50 (E. coli (25922)): 3.13 mg/L (≈ 4.35 µM)
